Structures are written as SMILES. Read-outs that look alike come from different tables or passages of the source.

Assay [1] deals with S. aureus MB-3648. Put plainly: Disc agar diffusion test, potentiation of Pen G and ampicillin. It is filed as cell-based, Staphylococcus aureus MB-3648.
Assay [2] has as its system S. aureus MB-3649. Described as above. Format: cell-based, Staphylococcus aureus MB-3649.
Assay [3] concerns Vibrio percolans MB-1272. Put plainly: Bilayer agar diffusion test, potentiation of Pen G in the presence of penicillinase. It is filed as cell-based.
Assay [4] has as its system two penicillinase-producing animal-pathogenic strains of Staphylococcus aureus. Format: cell-based, Staphylococcus aureus MB-3648 and MB-3649.
Where [5] appears, read: Ampicillin 15.7 μg/ml plus 4 μg/ml clavulanic acid.
Setting [6] is: Ampicillin 15.7 μg/ml plus 32 μg/ml 6 BPA.
[7] abbreviates: Ampicillin 31.3 μg/ml plus 4 μg/ml clavulanic acid.
[8] abbreviates: Ampicillin 31.3 μg/ml plus 32 μg/ml 6 BPA.
Setting [9] is: Ampicillin 62.5 μg/ml plus 4 μg/ml clavulanic acid.
Setting [10] is: Ampicillin 62.5 μg/ml plus 32 μg/ml 6 BPA.
The mark [11] stands for this setting: Ampicillin 125 μg/ml plus 4 μg/ml clavulanic acid.
Setting [12] is: Ampicillin 125 μg/ml plus 32 μg/ml 6 BPA.
Setting [13] is: Ampicillin 250 μg/ml plus 4 μg/ml clavulanic acid.
Setting [14] is: Ampicillin 250 μg/ml plus 32 μg/ml 6 BPA.
The mark [15] stands for this setting: subinhibitory concentration (1/4 MZC), extrapolated on standard/regression curve.

Take `CC1(C)S[C@@H]2[C@H](NC(=O)[C@H](N)c3ccccc3)C(=O)N2[C@H]1C(=O)O` [Ampicillin]: the Inhibition Zone Diameter, plus Clavulanic Ac was found to be 22 mm in assay [1] (setting [5]); 23 mm in assay [1] (setting [7]); 26 mm in assay [1] (setting [9]); 27 mm in assay [1] (setting [11]); 27 mm in assay [1] (setting [13]); 20 mm in assay [2] (setting [5]). For the same molecule, the Inhibition Zone Diameter, plus Clavulanic Ac in assay [2] (setting [7]) came out at 23 mm; in assay [2] (setting [9]), 24 mm; in assay [2] (setting [11]) it was 25 mm; in assay [2] (setting [13]), 24 mm. For the same molecule, the Inhibition Zone Diameter, plus 6 BPA was 23 mm in assay [1] (setting [6]); 23 mm in assay [1] (setting [8]); 24 mm in assay [1] (setting [10]); 25 mm in assay [1] (setting [12]); 26 mm in assay [1] (setting [14]); 19 mm in assay [2] (setting [6]). Further, the Inhibition Zone Diameter, plus 6 BPA in assay [2] (setting [8]) was 21 mm; in assay [2] (setting [10]), 23 mm; in assay [2] (setting [12]), 24 mm; in assay [2] (setting [14]) it was 29 mm. In addition, the zone of inhibition at 15.7 µg/mL turned out to be 0 mm in assay [1] (Staphylococcus aureus, MB3648, Ampicillin 15.7 μg/ml, read-out: Inhibition Zone Diameter, alone) and 0 mm in assay [2] (Staphylococcus aureus, MB3649, Ampicillin 15.7 μg/ml, read-out: Inhibition Zone Diameter, alone). The zone of inhibition at 31.3 µg/mL in assay [1] (Staphylococcus aureus, MB3648, Ampicillin 31.3 μg/ml, read-out: Inhibition Zone Diameter, alone) came to 0 mm; in assay [2] (Staphylococcus aureus, MB3649, Ampicillin 31.3 μg/ml, read-out: Inhibition Zone Diameter, alone) it was 0 mm. Further, the zone of inhibition at 62.5 µg/mL came to 0 mm in assay [1] (Staphylococcus aureus, MB3648, Ampicillin 62.5 μg/ml, read-out: Inhibition Zone Diameter, alone) and 0 mm in assay [2] (Staphylococcus aureus, MB3649, Ampicillin 62.5 μg/ml, read-out: Inhibition Zone Diameter, alone). The zone of inhibition at 125 µg/mL in assay [1] (Staphylococcus aureus, MB3648, Ampicillin 125 μg/ml, read-out: Inhibition Zone Diameter, alone) amounted to 18 mm; in assay [2] (Staphylococcus aureus, MB3649, Ampicillin 125 μg/ml, read-out: Inhibition Zone Diameter, alone), 17 mm. Further, the zone of inhibition at 250 µg/mL in assay [1] (Staphylococcus aureus, MB3648, Ampicillin 250 μg/ml, read-out: Inhibition Zone Diameter, alone) turned out to be 20 mm; in assay [2] (Staphylococcus aureus, MB3649, Ampicillin 250 μg/ml, read-out: Inhibition Zone Diameter, alone), 18 mm. Besides, the zone of inhibition at 500 µg/mL in assay [1] (Staphylococcus aureus, MB3648, Ampicillin 500 μg/ml, read-out: Inhibition Zone Diameter, alone) worked out at 23 mm; in assay [2] (Staphylococcus aureus, MB3649, Ampicillin 500 μg/ml, read-out: Inhibition Zone Diameter, alone) it was 20 mm. The zone of inhibition at 1000 µg/mL in assay [1] (Staphylococcus aureus, MB3648, Ampicillin 1000 μg/ml, read-out: Inhibition Zone Diameter, alone) worked out at 26 mm; in assay [2] (Staphylococcus aureus, MB3649, Ampicillin 1000 μg/ml, read-out: Inhibition Zone Diameter, alone) it was 25 mm.

In the case of `O=C(O)[C@H]1/C(=C/CO)O[C@@H]2CC(=O)N21` [Clavulanic Acid], the “Zone of inhibition, Antibiotic + Penase + Pen G” value in assay [3] (1 μg/ml, Penase 10^4 units/ml, Pen G 5 μg/ml) is recorded as 0 mm; in assay [3] (2 μg/ml, Penase 10^4 units/ml, Pen G 5 μg/ml) it was 0 mm; in assay [3] (4 μg/ml, Penase 10^4 units/ml, Pen G 5 μg/ml) it was 0 mm; in assay [3] (8 μg/ml, Penase 10^4 units/ml, Pen G 5 μg/ml) it was 0 mm; in assay [3] (16 μg/ml, Penase 10^4 units/ml, Pen G 5 μg/ml), 10 mm; in assay [3] (31 μg/ml, Penase 10^4 units/ml, Pen G 5 μg/ml), 21 mm. Besides, the zone of inhibition at 1 µg/mL in assay [3] (Comamonas terrigena, MB1272, 1 μg/ml, Penase 10^4 units/ml, read-out: Zone of inhibition, Antibiotic + Penase) was determined as 0 mm; in assay [3] (Comamonas terrigena, MB1272, 1 μg/ml, read-out: Zone of inhibition, Antibiotic Alone), 0 mm. Moreover, the zone of inhibition at 2 µg/mL in assay [3] (Comamonas terrigena, MB1272, 2 μg/ml, Penase 10^4 units/ml, read-out: Zone of inhibition, Antibiotic + Penase) is 0 mm; in assay [3] (Comamonas terrigena, MB1272, 2 μg/ml, read-out: Zone of inhibition, Antibiotic Alone), 0 mm. Also, the zone of inhibition at 4 µg/mL in assay [3] (Comamonas terrigena, MB1272, 4 μg/ml, Penase 10^4 units/ml, read-out: Zone of inhibition, Antibiotic + Penase) was 0 mm; in assay [3] (Comamonas terrigena, MB1272, 4 μg/ml, read-out: Zone of inhibition, Antibiotic Alone), 0 mm. Also, the zone of inhibition at 8 µg/mL in assay [3] (Comamonas terrigena, MB1272, 8 μg/ml, read-out: Zone of inhibition, Antibiotic Alone) was determined as 0 mm. Besides, the zone of inhibition at 16 µg/mL in assay [3] (Comamonas terrigena, MB1272, 16 μg/ml, Penase 10^4 units/ml, read-out: Zone of inhibition, Antibiotic + Penase) stood at 10 mm; in assay [3] (Comamonas terrigena, MB1272, 16 μg/ml, read-out: Zone of inhibition, Antibiotic Alone), 8 mm. Besides, the zone of inhibition at 31 µg/mL in assay [3] (Comamonas terrigena, MB1272, 31 μg/ml, Penase 10^4 units/ml, read-out: Zone of inhibition, Antibiotic + Penase) came out at 21 mm; in assay [3] (Comamonas terrigena, MB1272, 31 μg/ml, read-out: Zone of inhibition, Antibiotic Alone) it was 20 mm. In addition, in assay [3] (Pen G 5 μg/ml, Penase 10^4 units/ml), the “Concentration required to produce a zone of inhibition in the presence of Pen G and Penase” value is 16 µg/mL. The “Amount of clavulanic acid required relative to 6 BPA to produce a zone of inhibition” value in assay [3] (in the presence of Pen G and Penase) is recorded as 64 times. The “Potentiation of Pen G” value in assay [4] (setting [15]) is recorded as 64 fold. Moreover, the Potentiation of ampicillin in assay [4] (setting [15]) is 32 fold. Also, in assay [4] (substance alone vs either MB3648 or MB3649), the “1/4 of minimum zone-inducing concentration (1/4MZC)” value was found to be 4 µg/mL.

On to `CC1(C)S[C@@H]2[C@H](NC(=O)Cc3ccccc3)C(=O)N2[C@H]1C(=O)O` [Pen G], for which the zone of inhibition at 5 µg/mL in assay [3] (Comamonas terrigena, MB1272, Penase 10^4 units/ml, Pen G 5 μg/ml, no inhibitor, read-out: Zone of inhibition, Penase + Pen G Alone) amounted to 0 mm.

These data come from patent publication US4180506A, “6β-Bromo penicillanic acid” (priority 1978, dated 1979).
